Patent US10919896B2, “Preparation and uses of pyrimidinone derivatives” (Cancer Research Technology Limited, priority 2016, dated 2021)

Assays:
[1] = system: Cdc7 (pS53MCM2 levels in HCT116 cells); assay: Cdc7 Cell Pharmacodynamics Assay Method 1: pS53MCM2 levels in HCT116 cells, 6 hours; type: cell-based; conditions: Homo sapiens, HCT-116, 6 h, read-out: Biomarker Method 1 (pEC50) (converted)
Source text: This protocol describes a method to investigate the inhibition of Cdc7 activity of compounds by measuring pS53MCM2 levels in cells after treatment.
• HCT116 cells (wild type P53 positive) • McCoys 5A media (PAA Laboratories Ltd, E15-022) • 10% FCS (Sera Laboratories International Ltd, EU000F Batch:108005) • 100× L-Glutamine (Invitrogen, 25030-024) • D-PBS without CaCl2 and MgCl2 (Invitrogen, ref 14190-094) • Trypsin/EDTA (Invitrogen 25300-054) • 2% BSA in PBS • Cell Extraction Buffer (Invitrogen FNN0011) • Protease inhibitor cocktail (Sigma P-2714) • PMSF 0.3M stock in DMSO (Sigma P7626) • Antibody-rabbit pMCM2 Ser53 (Bethyl #A300-756A) • Antibody-goat MCM2 (Bethyl #A300-122A) • Antibody-goat Anti Rabbit IgG HRP (Perbio Science UK Ltd 31462) • 1×PBS • FACE Wash buffer (0.02% Triton X100 in 1×PBS) • SuperSignal ELISA Pico Chemiluminescent Substrate (Perbio Science UK Ltd 37070) Method • 72 hours prior to the start of the experiment plate 1×10^6 HCT 116 cells in a 150 cm^2 flask in complete McCoys 5A media (+10% FCS+1× L-glutamine). • Plate 20,000 HCT116 cells per well in standard TC treated 96 well plate in 100 μL complete McCoys 5A media. • Allow cells to settle overnight in incubator set at 37° C. and 5% CO2. • Remove intermediate plate from fridge and place at 37° C. overnight to allow to equilibrate. • Cell treatment: cell assay plate 100 μL; daughter to cell transfer volume 3.33 μL; daughter volume 45 μL; mother plate to daughter volume 5 μL. • Once all cells are treated remove the cells to the incubator and incubate for 6 hours. • Dilute the capture antibody (total MCM2#A300-122A) 1 in 250 in the required volume of PBS (5 mL per assay plate) and add 50 μL to each well of a Hybond plate excluding wells 12E to 12H. In these wells add 50 μL PBS. Seal the plate and incubate at room temperature for a minimum of 2 hours. • Defrost aliquot of Invitrogen Cell Extraction Buffer (FNN0011) on ice and supplement with appropriate volume of both Sigma protease inhibitor cocktail (P-2714) and PMSF (final conc 1 mM from a 1 M stock in DMSO). • After the 6 hour cell treatment time tap out the media from the assay plates and place them in the −70° C. freezer for at least 5 minutes. • Remove plates from freezer and add 20 μL of ice cold complete lysis buffer on ice. Incubate cells for 30 minutes at 4° C. • Add 80 μL per well 2% BSA. • Transfer 80 μL from the lysis plate to the same wells in the capture/ELISA plate. Cover with plate seal and incubate plates overnight at 4° C. • Wash plates with PBS, remove any residual remaining liquid and add 50 μL per well of pMCM2 Ser53 antibody (#A300-756A) diluted 1 in 100 in 2% BSA. Cover plate and incubate at room temperature for 2 hours with gentle shaking. • Wash plates with PBS, remove any residual remaining liquid and Incubate with 50 μL goat anti rabbit antibody (1 in 800 dilution in 2% BSA) for 1 hour at room temperature. • Wash plates with PBS, remove any residual remaining liquid and add 50 μL mixed SuperSignal Pico substrate. • Incubate each plate for 5 minutes at room temperature shielding the plates from direct light (with a cover plate). Read plates with the luminescent detection. Method 2A and 2B

Cdc7/ASK [2] = target: T1, Cdc7/ASK (Homo sapiens, UniProt O00311); assay: Cdc7 Biochemical Assay Method 2: 384 well mobility shift assay (EZ Reader II), MCM2 peptide substrate; parameters: purchased; conditions: 12.5 μM ATP, read-out: Biochemical Method 2 (pIC50) (converted)
Description: This protocol describes a method for assaying Cdc7/ASK for activity. The assay is a 384 well mobility shift assay (MSA) run on the EZ Reader II microfluidics plate reader (Caliper LifeSciences), utilising a peptide substrate based on the MCM2 sequence. The assay technology is based on the change in mobility between the peptide substrate and the phosphorylated product. A 10 nL volume of the reaction mixture is sipped onto the microfluidic chip where the substrate and product are separated by electrophoresis and detected via laser-induced fluorescence (488 nm LED). The reaction can be monitored in real-time for kinetic experiments or as an end-point for IC50 determinations. The % conversion of substrate is calculated from peak heights of product (P) and substrate (S) peptides (% conversion=P/(P+S)*100).
• 10× Assay Buffer: 200 mM HEPES pH 8, 100 mM MgCl2, 0.1% v/v Triton X-100 and 15 mM DTT. Prepare fresh buffer from 1 M HEPES pH 8, 1 M MgCl2, 1 M DTT and 10% Triton x-100 stocks for each experiment. • Cdc7/ASK is purchased from commercial suppliers and used in the assay at a final assay concentration of 0.847 ng/μL or 9.2 nM. • MCM2 peptide is purchased from commercial suppliers and used in the assay at a final assay concentration of 2.5 μM. • ATP used in the assay at a final assay concentration of 12.5 μM. Methods • 1. Prepare intermediate (daughter) compound plate by transferring 2 μL of compound from the mother plate to 18 μL of 33.3% DMSO in a clear polypropylene plate. • 2. Dry-spot 1 μL of compound from the intermediate compound plate to empty assay plate. • 3. Add 5 μL of 1.694 ng/μL CDC7/ASK working solution to ‘test’ and ‘control’ wells or […] of 2× Assay Buffer to ‘blank’ wells. • 4. Add 4 μL 2.5 μM peptide/12.5 μM ATP working solution to all wells. • 5. Incubate at 37° C. for 1 hour then remove from the incubator and leave for a further 1 hour at room temperature. • 6. Place plate into an EZReader II to read.
Percentage inhibition values were calculated from % of substrate conversion values, using the no compound (DMSO) and no enzyme control values as 0% and 100% inhibition, respectively. IC50 determination was performed with ExcelFit software (IDBS) using curve fit 205. Z′ factors were determined for each plate tested and were all above 0.5.

Cdc7/ASK [3] = target: T1, Cdc7/ASK; assay: Cdc7 Biochemical Assay Method 1: 384 well ELISA, whole protein substrate MCM2, antibody against Phospho MCM2 (S53); parameters: purchased; conditions: 2 μM ATP, read-out: Biochemical Method 1 (pIC50) (converted)
How it was run: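 MCM2 protein substrate was coated on nickel-chelate plates, then Cdc7/ASK was added with 2 μM ATP in 50 mM Tris-HCl pH 8.5, 10 mM MgCl2, 1 mM DTT, 4% DMSO, 90 min at room temperature. Phospho-MCM2 (S53) was detected by ELISA with an AP secondary and PNPP absorbance. IC50 was derived from % inhibition versus no-compound and no-enzyme controls.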

Cdc7/Dbf4 = Cdc7/Dbf4 (Homo sapiens, UniProt O00311); assay: Cdc7 Biochemical Assay Method 3: Cdc7/Dbf4 Enzyme TR-FRET Assay measuring pS40MCM2; conditions: 1 μM ATP, read-out: Biochemical Method 3 (pIC50) (converted)
How it was run: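 TR-FRET read-out (terbium anti-rabbit donor, streptavidin-Alexa Fluor488 acceptor, anti-Mcm2 pS40 antibody) of peptide phosphorylation after 120 min at 25° C; reaction held 1 μM ATP, 100 nM biotin-tagged peptide substrate and 2.5 nM enzyme complex.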

T1 sequence (O00311 whole entry): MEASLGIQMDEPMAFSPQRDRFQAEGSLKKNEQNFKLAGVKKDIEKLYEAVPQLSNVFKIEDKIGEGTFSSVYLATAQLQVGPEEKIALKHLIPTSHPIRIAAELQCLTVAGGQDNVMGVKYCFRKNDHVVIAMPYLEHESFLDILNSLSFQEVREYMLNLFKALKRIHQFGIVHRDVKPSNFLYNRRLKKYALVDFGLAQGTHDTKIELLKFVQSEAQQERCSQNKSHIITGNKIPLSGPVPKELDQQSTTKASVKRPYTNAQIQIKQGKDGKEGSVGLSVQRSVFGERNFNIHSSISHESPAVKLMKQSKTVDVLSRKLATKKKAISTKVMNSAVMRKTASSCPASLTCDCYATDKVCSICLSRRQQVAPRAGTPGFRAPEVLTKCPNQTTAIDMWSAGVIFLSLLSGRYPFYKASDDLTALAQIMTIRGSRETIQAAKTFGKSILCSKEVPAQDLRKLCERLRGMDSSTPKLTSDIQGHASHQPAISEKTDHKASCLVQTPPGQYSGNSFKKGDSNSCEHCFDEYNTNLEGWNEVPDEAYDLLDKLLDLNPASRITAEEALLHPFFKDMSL
T1 sequence (Q9UBU7 whole entry partner): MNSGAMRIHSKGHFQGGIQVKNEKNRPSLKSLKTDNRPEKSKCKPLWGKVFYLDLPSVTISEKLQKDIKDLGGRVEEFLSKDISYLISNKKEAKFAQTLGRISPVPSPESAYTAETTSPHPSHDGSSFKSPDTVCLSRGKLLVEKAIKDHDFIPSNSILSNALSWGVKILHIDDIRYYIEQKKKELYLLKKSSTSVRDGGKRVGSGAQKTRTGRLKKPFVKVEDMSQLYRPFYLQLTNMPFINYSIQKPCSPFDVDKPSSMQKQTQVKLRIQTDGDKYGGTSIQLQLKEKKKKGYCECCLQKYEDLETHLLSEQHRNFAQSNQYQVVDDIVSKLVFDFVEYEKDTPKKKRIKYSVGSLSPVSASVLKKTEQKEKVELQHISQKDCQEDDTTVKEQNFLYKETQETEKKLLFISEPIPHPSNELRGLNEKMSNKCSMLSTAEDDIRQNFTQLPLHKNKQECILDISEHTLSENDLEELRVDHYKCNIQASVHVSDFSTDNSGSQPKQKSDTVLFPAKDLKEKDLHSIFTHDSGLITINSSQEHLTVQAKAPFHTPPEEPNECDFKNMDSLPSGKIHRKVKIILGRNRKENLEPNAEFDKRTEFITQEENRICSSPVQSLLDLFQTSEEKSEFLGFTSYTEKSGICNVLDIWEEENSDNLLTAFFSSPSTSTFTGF
Sequence of Cdc7/Dbf4 (O00311 whole entry): as the sequence (O00311 whole entry) above
Sequence of Cdc7/Dbf4 (Q9UBU7 whole entry partner): as the sequence (Q9UBU7 whole entry partner) above

Compound | EC50 [1] [nM] | IC50 (Cdc7/ASK [2]) [nM] | IC50 (Cdc7/ASK [3]) [nM] | IC50 (Cdc7/Dbf4) [nM]
CC(F)(F)[C@H]1CN(c2nc(-c3ccnc(F)c3)[nH]c(=O)c2Cl)CCN1 [Compound 315] | 63.1 | 1.51 | – | –
CC(C)CC1COCCN1c1nc(-c2ccncc2)[nH]c(=O)c1Cl (stereo not shown) [Compound 367] | – | 295 | – | –
CC(C)(C)[C@H]1CN(c2nc(-c3ccnc(F)c3)[nH]c(=O)c2Cl)CCN1 [Compound 322] | 42.7 | 1.38 | – | –
CC(C)[C@H]1CN(c2nc(-c3ccncc3)[nH]c(=O)c2C#N)CCN1 [Compound 409, 4-[(3S)-3-isopropylpiperazin-1-yl]-6-oxo-2-(4-pyridyl)-1H-pyrimidine-5-carbonitrile] | – | 11.5 | – | –
CCCC1COCCN1c1nc(-c2ccncc2)[nH]c(=O)c1Cl (stereo not shown) [Compound 366] | – | 60.3 | – | –
CC(C)C[C@H]1CN2CCC[C@H]2CN1c1nc(-c2ccncc2)[nH]c(=O)c1Cl [Compound 184] | – | 170 | 437 | 102
CC(C)(C)[C@H]1CN(c2nc(-c3ccncc3)[nH]c(=O)c2Br)CCN1 [Compound 410, 5-bromo-4-[(3S)-3-tert-butylpiperazin-1-yl]-2-(4-pyridyl)-1H-pyrimidin-6-one] | 269 | 9.12 | – | –
NC1CCN(c2nc(-c3ccnc(F)c3)[nH]c(=O)c2Cl)CC1 [Compound 321] | 457 | 2.29 | – | –
NC[C@@H]1CCN(c2nc(-c3ccnc(F)c3)[nH]c(=O)c2Cl)C1 [Compound 318] | – | 14.1 | – | –
CC(F)(F)[C@H]1CN(c2nc(-c3ccncc3)[nH]c(=O)c2Cl)CCN1 [Compound 307] | – | 2.29 | 3.63 | –
CC(C)[C@H]1CN(c2nc(-c3ccncc3)[nH]c(=O)c2Br)CCN1 [Compound 408, 5-bromo-4-[(3S)-3-isopropylpiperazin-1-yl]-2-(4-pyridyl)-1H-pyrimidin-6-one] | 257 | 5.25 | – | –
CC(C)(C)[C@H]1CN(c2nc(-c3ccncc3)[nH]c(=O)c2C#N)CCN1 [Compound 411, 4-[(3S)-3-tert-butylpiperazin-1-yl]-6-oxo-2-(4-pyridyl)-1H-pyrimidine-5-carbonitrile] | – | 10.5 | – | –

Further lines, results first:

EC50 [1] [nM] | IC50 (Cdc7/ASK [2]) [nM] | IC50 (Cdc7/ASK [3]) [nM] | IC50 (Cdc7/Dbf4) [nM] | Compound
15.5 | 0.603 | – | – | CC1CNCCN1c1nc(-c2ccncc2)[nH]c(=O)c1Cl (stereo not shown) [Compound 368]
– | 263 | – | – | O=c1[nH]c(-c2ccncc2)nc(N2CCNCC2c2ccccc2)c1Cl (stereo not shown) [Compound 372]
891 | 5.5 | – | – | CC[C@H]1CNCCN1c1nc(-c2ccncc2)[nH]c(=O)c1Cl [Compound 369]
1020 | 12 | – | – | CC(C)[C@H]1CNCCN1c1nc(-c2ccncc2)[nH]c(=O)c1Cl [Compound 370]
263 | 7.08 | – | – | C[C@H]1COCCN1c1nc(-c2ccncc2)[nH]c(=O)c1Cl [Compound 365]
245 | 3.09 | – | – | CC[C@@H]1CNCCN1c1nc(-c2ccncc2)[nH]c(=O)c1Cl [Compound 371]
